Assay [1] has as its target T1, human dipeptidyl peptidase III (hDPP III) (Homo sapiens, UniProt Q9NY33).
T1 construct: gene DPP3; C-terminally truncated human DPP III (His-tag removed by TEV)
T1 sequence (Q9NY33 1-726 limits assumed): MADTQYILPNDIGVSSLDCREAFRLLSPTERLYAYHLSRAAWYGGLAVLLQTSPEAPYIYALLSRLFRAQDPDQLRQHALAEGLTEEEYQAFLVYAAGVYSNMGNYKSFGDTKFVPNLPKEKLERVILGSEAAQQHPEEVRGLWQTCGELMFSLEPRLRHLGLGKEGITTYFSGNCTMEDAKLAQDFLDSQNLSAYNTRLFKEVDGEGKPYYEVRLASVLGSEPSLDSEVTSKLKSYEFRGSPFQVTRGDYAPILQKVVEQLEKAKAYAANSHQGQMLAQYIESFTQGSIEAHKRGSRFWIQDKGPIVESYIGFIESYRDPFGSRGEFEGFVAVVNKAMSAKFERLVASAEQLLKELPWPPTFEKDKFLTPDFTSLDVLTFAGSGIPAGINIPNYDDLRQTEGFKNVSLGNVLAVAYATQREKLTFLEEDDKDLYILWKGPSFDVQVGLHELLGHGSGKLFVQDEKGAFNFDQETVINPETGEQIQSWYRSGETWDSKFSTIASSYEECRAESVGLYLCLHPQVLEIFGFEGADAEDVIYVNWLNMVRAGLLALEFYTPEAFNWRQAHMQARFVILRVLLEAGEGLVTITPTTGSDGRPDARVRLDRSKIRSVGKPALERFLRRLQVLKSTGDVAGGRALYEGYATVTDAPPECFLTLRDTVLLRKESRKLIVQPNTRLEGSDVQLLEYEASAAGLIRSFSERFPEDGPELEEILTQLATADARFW
Kind of assay: spectrophotometric enzyme assay, % inhibition at […], purified hDPP III. Type of assay: biochemical. The settings on record: for inhibition at 10 µM: read-out: DPP III Inh. (%).

The target of assay [2] is T1, human dipeptidyl peptidase III (hDPP III). Kind of assay: spectrophotometric enzyme assay with Arg2-2NA substrate, purified hDPP III. The settings on record: read-out: DPP III Inh. (%). Type of assay: biochemical.

This note sets out measurements from publication PMC8229952, “Coumarin Derivatives Act as Novel Inhibitors of Human Dipeptidyl Peptidase III: Combined In Vitro and In Silico Study” (Pharmaceuticals, 2021).

With `O=C(c1ccccc1)c1cc2cc(O)ccc2oc1=O` [compound 10, 3-benzoyl; 6-hydroxy (substituted 2H-chromen-2-one)], in assay [1], the inhibition at 10 µM was determined as 67.5%. As to `O=C(c1ccccc1)c1cc2ccc(O)cc2oc1=O` [compound 12, 3-benzoyl-7-hydroxy-2H-chromen-2-one], the IC50 in assay [2] is 1.1 ± 0.05 µM. On to `N#Cc1cc2cc(O)ccc2oc1=O` [compound 18, 3-cyano; 6-hydroxy (substituted 2-oxo-2H-chromene-3-carbonitrile)], for which the inhibition at 10 µM in assay [1] came out at 44.6%.

With `N#Cc1cc2cccc(O)c2oc1=O` [compound 21, 3-cyano; 8-hydroxy (substituted 2-oxo-2H-chromene-3-carbonitrile)], the inhibition at 10 µM in assay [1] is 62.6%. Regarding `CCOC(=O)c1cc2cc(O)ccc2oc1=O` [compound 27, 3-ethoxycarbonyl; 6-hydroxy (substituted 2H-chromen-2-one)], the “DPP III Inh. (%)” value in assay [1] (10 µM) amounted to 66.0. Turning to `COC(=O)c1cc2ccc(O)cc2oc1=O` [compound 36, methyl 7-hydroxy-2-oxo-2H-chromene-3-carboxylate], the IC50 in assay [2] was found to be 2.14 ± 0.06 µM.
